Assay results taken from publication PMC7263517 (bioRxiv, 2020).
Where two headings read alike, the source gives them in different places.

Tests used:
influenza virus = settings: read-out: EC90 influenza virus growth in cell culture; cited from earlier work
[1] = target: A/WSN/33 (H1N1) influenza virus FluPol (Influenza A virus, UniProt P03430); experiment: biochemical; assay type: biochemical, influenza A/WSN/33 (H1N1) virus
[2] = target: SARS-CoV-2 nsp7/8/12 complex (Severe acute respiratory syndrome coronavirus 2, UniProt P0DTD1); experiment: SARS-CoV-2 nsp7/8/12 in vitro activity assay; assay type: biochemical
FluPol = FluPol (Influenza A virus, UniProt P03430); assay type: biochemical, influenza A/WSN/33 (H1N1) virus
FluPol, sequence (P03430 whole entry, looked up): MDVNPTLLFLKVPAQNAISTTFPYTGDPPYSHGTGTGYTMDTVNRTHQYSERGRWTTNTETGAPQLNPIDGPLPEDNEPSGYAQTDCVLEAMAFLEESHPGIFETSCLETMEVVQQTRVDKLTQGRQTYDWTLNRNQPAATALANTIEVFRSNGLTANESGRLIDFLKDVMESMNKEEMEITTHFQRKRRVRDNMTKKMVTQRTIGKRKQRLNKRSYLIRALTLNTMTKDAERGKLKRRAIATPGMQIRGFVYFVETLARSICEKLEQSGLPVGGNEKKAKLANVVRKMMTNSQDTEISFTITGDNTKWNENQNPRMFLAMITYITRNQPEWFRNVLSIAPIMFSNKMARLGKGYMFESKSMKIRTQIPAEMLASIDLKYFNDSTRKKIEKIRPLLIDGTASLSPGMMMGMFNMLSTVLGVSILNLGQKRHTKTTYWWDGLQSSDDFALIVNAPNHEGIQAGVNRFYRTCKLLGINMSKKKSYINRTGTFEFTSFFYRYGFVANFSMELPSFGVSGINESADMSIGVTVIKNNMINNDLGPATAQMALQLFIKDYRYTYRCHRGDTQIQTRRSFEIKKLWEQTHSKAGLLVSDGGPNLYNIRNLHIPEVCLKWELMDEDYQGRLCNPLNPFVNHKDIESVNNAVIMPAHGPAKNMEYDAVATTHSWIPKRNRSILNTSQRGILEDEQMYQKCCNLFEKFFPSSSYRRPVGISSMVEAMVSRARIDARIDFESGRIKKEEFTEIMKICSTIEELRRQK

A/WSN/33 (H1N1) influenza virus FluPol, sequence (P03430 whole entry, looked up): as above

Row | SMILES | FOLD CHANGE IC50 [1] | IC50 ([1]; read-out: FLUPOL IC50) [mM] | IC50 [1] [mM] | other results
1 | C[n+]1ccc(C(=O)NCc2ccccc2)cc1 [enisamium, 4-(benzylcarbamoyl)-1-methylpyridinium] |  |  |  | EC90 (influenza virus): 0.157 to 0.439 mM
2 | C[n+]1ccc(C(=O)NCc2ccccc2O)cc1 [VR16-01, 4-{[(2-hydroxyphenyl)methyl]carbamoyl}-1-methylpyridin-1-ium] | 0.6 | 78.2 |  | 
3 | O=C(NCc1ccccc1)c1cc[nH]c(=O)c1 [VR18-04, N-benzyl-2-oxo-1,2-dihydropyridine-4-carboxamide] | 1.3 |  | 35.2 | 
4 | C[n+]1ccc(C(=O)NCc2ccccc2)cc1 [FAV00A, N-methyl-4-benzylcarbamidopyridinium iodide, reference compound] | 1 |  | 46.3 | IC50 [2]: 40.7 mM; inhibition of FluPol activity by cellular extract (FluPol): strong, concentration-dependent inhibition
5 | NC(=O)c1nc(F)cn([C@@H]2O[C@H](COP(=O)(O)OP(=O)(O)OP(=O)(O)O)[C@@H](O)[C@H]2O)c1=O [T-705 triphosphate, 6-fluoro-3,4-dihydro-4-[5-O-(hydroxy{[hydroxy(phosphonooxy)phosphinyl]oxy}phosphinyl)-β-d-ribofuranosyl]-3-oxo-2-pyrazinecarboxamide, reference compound] |  |  | 0.011 | IC50 SARS-CoV-2 nsp7/8/12 RNA synthesis activity ([2]; in vitro, 30 mins, VR17-04 value estimated from the dose-response curve): non-inhibitory
6 | O=C(NCc1ccccc1O)c1ccncc1 [VR18-01, N-[(2-hydrophenyl)methyl]pyridine-4-carboxamide] | 1.4 | 34.2 |  | 
7 | O=C(NCc1cccc(O)c1)c1ccncc1 [VR18-02, N-[(3-hydrophenyl)methyl]pyridine-4-carboxamide] | 0.5 | 94.8 |  | 
8 | O=C(NCc1ccc(O)cc1)c1ccncc1 [VR18-03, N-[(4-hydrophenyl)methyl]pyridine-4-carboxamide] | 0.6 | 74 |  | 
